In paper PMC2632775 (Nuclear medicine and biology, 2008):
Like-named read-outs stand apart in the source and are kept apart here.

Columns and labels:
[1] = target: T1, VMAT2 binding sites in the pancreas (Rattus norvegicus, UniProt Q01827); assay: Blocking studies of pancreatic uptake in rats; assay type: in vivo; conditions: for Pancreas uptake, Pretreatment / Blood uptake, Pretreatment: n=5, ± SD
[2] = rats, avg ± SD, cited from earlier work
[3] = target: T1, VMAT2 binding sites in the pancreas; conditions: rats, 60 min after tracer injection, ± SD, cited from earlier work
[4] = target: VMAT2 binding sites of beta cells in the pancreas (Rattus norvegicus, UniProt Q01827); conditions: rats, PET, post iv injection
[5] = rats, iv
VMAT2 = VMAT2 (Rattus norvegicus, UniProt Q01827); assay: In vitro autoradiography using rat brain sections; assay type: binding; conditions: preliminary, data not shown
[6] = 60 min after tracer injection, no pretreatment, n=4, ± SD
[7] = 60 min after tracer injection, pretreatment of (+)2 3.5 mg/kg iv 5 min prior
[8] = pretreatment of (+)2 3.5 mg/kg iv 5 min prior
[9] = 30 min after tracer injection, no pretreatment, n=4, ± SD
[10] = 30 min after tracer injection, pretreatment of (+)DTBZ 3.3 mg/kg iv 5 min prior

T1 sequence (Q01827 whole entry): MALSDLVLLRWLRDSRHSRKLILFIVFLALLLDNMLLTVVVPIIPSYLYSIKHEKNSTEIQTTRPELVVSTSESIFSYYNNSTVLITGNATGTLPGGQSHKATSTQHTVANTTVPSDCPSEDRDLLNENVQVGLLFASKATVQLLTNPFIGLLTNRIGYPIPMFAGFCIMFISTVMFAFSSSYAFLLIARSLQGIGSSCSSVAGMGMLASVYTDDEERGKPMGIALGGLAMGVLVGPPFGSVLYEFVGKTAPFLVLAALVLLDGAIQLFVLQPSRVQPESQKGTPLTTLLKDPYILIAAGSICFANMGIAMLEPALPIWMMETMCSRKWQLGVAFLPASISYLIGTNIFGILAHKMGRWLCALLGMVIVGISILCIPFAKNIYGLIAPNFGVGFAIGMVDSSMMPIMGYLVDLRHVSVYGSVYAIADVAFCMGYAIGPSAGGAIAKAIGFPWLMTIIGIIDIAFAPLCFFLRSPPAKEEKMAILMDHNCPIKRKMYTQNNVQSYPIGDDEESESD
Chain of VMAT2 (Q01827 whole entry): as above
Chain of VMAT2 binding sites of beta cells in the pancreas (Q01827 whole entry): as above

COc1cc2c(cc1OCCC[18F])CCN1CC(CC(C)C)C(O)CC21 (stereo not drawn) [[^18F](+)2, [^18F](−)-2-Hydroyxl-3-isobutyl-9-(3-fluoropropoxy)-10-methoxy-2,3,4,6,7, 11b-hexahydro-1H-pyrido[2,1-a]isoquinoline]
Pancreas uptake, Control [1, 6]: 2.19 %ID/g | Pancreas uptake, Pretreatment [1, 7]: 0.32 %ID/g | Blood uptake ([2]; 2 min): 0.26 ± 0.03 %ID/g | Brain uptake ([2]; 2 min): 0.71 ± 0.05 %ID/g | Heart uptake ([2]; 2 min): 0.71 ± 0.07 %ID/g | Kidney uptake ([2]; 2 min): 2.10 ± 0.17 %ID/g | Liver uptake ([2]; 2 min): 3.53 ± 0.56 %ID/g | Lung uptake ([2]; 2 min): 0.94 ± 0.04 %ID/g | Muscle uptake ([2]; 2 min): 0.14 ± 0.03 %ID/g | Pancreas uptake ([2]; 2 min): 2.51 ± 0.22 %ID/g | Skin uptake ([2]; 2 min): 0.23 ± 0.05 %ID/g | Spleen uptake ([2]; 2 min): 1.46 ± 0.15 %ID/g | Blood uptake ([2]; 30 min): 0.23 ± 0.06 %ID/g | Brain uptake ([2]; 30 min): 0.62 ± 0.08 %ID/g | Heart uptake ([2]; 30 min): 0.41 ± 0.03 %ID/g | Kidney uptake ([2]; 30 min): 1.06 ± 0.06 %ID/g | Liver uptake ([2]; 30 min): 2.82 ± 0.24 %ID/g | Lung uptake ([2]; 30 min): 0.69 ± 0.03 %ID/g | Muscle uptake ([2]; 30 min): 0.17 ± 0.02 %ID/g | Pancreas uptake ([2]; 30 min): 5.50 ± 0.97 %ID/g | Skin uptake ([2]; 30 min): 0.28 ± 0.01 %ID/g | Spleen uptake ([2]; 30 min): 1.03 ± 0.18 %ID/g | Blood uptake ([2]; 60 min): 0.18 ± 0.02 %ID/g | Brain uptake ([2]; 60 min): 0.42 ± 0.04 %ID/g | Heart uptake ([2]; 60 min): 0.30 ± 0.10 %ID/g | Kidney uptake ([2]; 60 min): 0.84 ± 0.09 %ID/g | Liver uptake ([2]; 60 min): 2.47 ± 0.30 %ID/g | Lung uptake ([2]; 60 min): 0.54 ± 0.14 %ID/g | Muscle uptake ([2]; 60 min): 0.13 ± 0.01 %ID/g | Pancreas uptake ([2]; 60 min): 4.98 ± 0.24 %ID/g | Skin uptake ([2]; 60 min): 0.23 ± 0.04 %ID/g | Spleen uptake ([2]; 60 min): 0.83 ± 0.18 %ID/g | Blood uptake ([2]; 120 min): 0.12 ± 0.03 %ID/g | Brain uptake ([2]; 120 min): 0.35 ± 0.02 %ID/g | Heart uptake ([2]; 120 min): 0.22 ± 0.01 %ID/g | Kidney uptake ([2]; 120 min): 0.55 ± 0.06 %ID/g | Liver uptake ([2]; 120 min): 1.47 ± 0.13 %ID/g | Lung uptake ([2]; 120 min): 0.35 ± 0.03 %ID/g | Muscle uptake ([2]; 120 min): 0.10 ± 0.01 %ID/g | Pancreas uptake ([2]; 120 min): 2.76 ± 0.61 %ID/g | Skin uptake ([2]; 120 min): 0.16 ± 0.02 %ID/g | Spleen uptake ([2]; 120 min): 0.48 ± 0.04 %ID/g | Blood uptake, Control ([3]; no pretreatment): 0.20 ± 0.02 %ID/g | Pancreas uptake, Control ([3]; no pretreatment): 4.93 ± 0.49 %ID/g | Blood uptake, Pretreatment [3, 8]: 0.26 ± 0.04 %ID/g | Pancreas uptake, Pretreatment [3, 8]: 1.11 ± 0.07 %ID/g

COc1cc2c(cc1OCCC[18F])CCN1CC(CC(C)C)C(C3CO3)CC21 (stereo not drawn) [[^18F](+)4] [[^18F](+)-2-Oxiranyl-3-isobutyl-9-(3-fluoropropoxy)-10-methoxy-2,3,4,6,7, 11b-hexahydro-1H-pyrido[2,1-a]isoquinoline]
Pancreas uptake, Control [1, 6]: 2.19 ± 0.37 %ID/g | Blood uptake, Pretreatment [1, 7]: 0.06 ± 0.01 %ID/g | Pancreas uptake, Pretreatment [1, 7]: 0.32 ± 0.07 %ID/g | Time of peak uptake and retention in the pancreas [4]: around 60 min | Pancreas uptake, Pretreatment [3, 8]: 1.11 %ID/g | Blood uptake ([5]; 2 min, n=3): 0.27 %ID/g | Bone uptake ([5]; 2 min, n=3): 0.29 %ID/g | Brain uptake ([5]; 2 min, n=3): 0.95 %ID/g | Heart uptake ([5]; 2 min, n=3): 0.48 %ID/g | Kidney uptake ([5]; 2 min, n=3): 4.60 %ID/g | Liver uptake ([5]; 2 min, n=3): 3.28 %ID/g | Lung uptake ([5]; 2 min, n=3): 0.79 %ID/g | Muscle uptake ([5]; 2 min, n=3): 1.00 %ID/g | Pancreas uptake ([5]; 2 min, n=3): 1.64 %ID/g | Skin uptake ([5]; 2 min, n=3): 0.21 %ID/g | Spleen uptake ([5]; 2 min, n=3): 1.36 %ID/g | Blood uptake ([5]; 30 min, n=3): 0.15 %ID/g | Brain uptake ([5]; 30 min, n=3): 0.30 %ID/g | Heart uptake ([5]; 30 min, n=3): 0.11 %ID/g | Kidney uptake ([5]; 30 min, n=3): 3.59 %ID/g | Liver uptake ([5]; 30 min, n=3): 1.02 %ID/g | Lung uptake ([5]; 30 min, n=3): 0.48 %ID/g | Pancreas uptake ([5]; 30 min, n=3): 1.96 %ID/g | Skin uptake ([5]; 30 min, n=3): 0.14 %ID/g | Spleen uptake ([5]; 30 min, n=3): 0.26 %ID/g | Blood uptake ([5]; 60 min, n=7): 0.10 %ID/g | Bone uptake ([5]; 60 min, n=7): 0.23 %ID/g | Brain uptake ([5]; 60 min, n=7): 0.32 %ID/g | Heart uptake ([5]; 60 min, n=7): 0.07 %ID/g | Kidney uptake ([5]; 60 min, n=7): 2.21 %ID/g | Liver uptake ([5]; 60 min, n=7): 0.67 %ID/g | Lung uptake ([5]; 60 min, n=7): 0.14 %ID/g | Muscle uptake ([5]; 60 min, n=7): 0.04 %ID/g | Pancreas uptake ([5]; 60 min, n=7): 2.68 %ID/g | Skin uptake ([5]; 60 min, n=7): 0.09 %ID/g | Spleen uptake ([5]; 60 min, n=7): 0.16 %ID/g | Blood uptake ([5]; 120 min, n=7): 0.04 %ID/g | Bone uptake ([5]; 120 min, n=7): 0.22 %ID/g | Brain uptake ([5]; 120 min, n=7): 0.24 %ID/g | Heart uptake ([5]; 120 min, n=7): 0.02 %ID/g | Kidney uptake ([5]; 120 min, n=7): 1.58 %ID/g | Liver uptake ([5]; 120 min, n=7): 0.54 %ID/g | Lung uptake ([5]; 120 min, n=7): 0.05 %ID/g | Muscle uptake ([5]; 120 min, n=7): 0.02 %ID/g | Pancreas uptake ([5]; 120 min, n=7): 1.33 %ID/g | Skin uptake ([5]; 120 min, n=7): 0.04 %ID/g | Spleen uptake ([5]; 120 min, n=7): 0.08 %ID/g | Blood uptake ([5]; 240 min, n=4): 0.02 %ID/g | Bone uptake ([5]; 240 min, n=4): 0.27 %ID/g | Brain uptake ([5]; 240 min, n=4): 0.28 %ID/g | Heart uptake ([5]; 240 min, n=4): 0.01 %ID/g | Kidney uptake ([5]; 240 min, n=4): 2.01 %ID/g | Liver uptake ([5]; 240 min, n=4): 0.54 %ID/g | Lung uptake ([5]; 240 min, n=4): 0.03 %ID/g | Muscle uptake ([5]; 240 min, n=4): 0.01 %ID/g | Pancreas uptake ([5]; 240 min, n=4): 0.81 %ID/g | Skin uptake ([5]; 240 min, n=4): 0.02 %ID/g | Spleen uptake ([5]; 240 min, n=4): 0.04 %ID/g

COc1cc2c(cc1OCCC[18F])CCN1CC(CC(C)C)C(C3CO3)CC21 (stereo not drawn) [[^18F](−)4] [[^18F](−)-2-Oxiranyl-3-isobutyl-9-(3-fluoropropoxy)-10-methoxy-2,3,4,6,7, 11b-hexahydro-1H-pyrido[2,1-a]isoquinoline]
Displaceability of pancreas uptake ([1]; 30 min, iv pretreatment of (+)DTBZ 3.3 mg/kg 5 min prior): non-displaceable | Blood uptake, Control [1, 9]: 0.07 ± 0.00 %ID/g | Pancreas uptake, Control [1, 9]: 0.22 ± 0.02 %ID/g | Blood uptake, Pretreatment [1, 10]: 0.12 ± 0.03 %ID/g | Pancreas uptake, Pretreatment [1, 10]: 0.22 ± 0.04 %ID/g | Labeling of rat brain sections (in vitro autoradiography) (VMAT2): no specific binding in any brain region
